Results as given in patent US20020137929A1, “1 - (3-heterocyclylphenyl) isothiourea, -isourea, -guanidine and -amidine herbicidal agents” (Intellectual Property Department, BASF Aktiengesellschaft, priority 1998, published 2002).

What was measured:
[1] = test system: CHEAL (Lambsquarters, Common); assay: Postemergence herbicidal evaluation; format: in vivo, Chenopodium album; conditions: postemergence
Outline: (§1)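 Each compound, dispersed in an acetone/water mix (50/50) carrying 0.5% TWEEN 20, is nozzle-sprayed at 40 psi on approximately two-week-old seedlings at about 0.0156–0.500 kg/ha. Plants are assessed 4–5 weeks afterward on a 0–9 scale relative to control; duplicate tests are averaged.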

ECHCG (Barnyardgrass) = assay: Postemergence herbicidal evaluation; format: in vivo, Echinochloa crus-galli; conditions: postemergence
Outline: as §1

ORYSAT (Rice, Tebonnet) = assay: Preemergence herbicidal evaluation; format: in vivo, Oryza sativa, (L.) Tebonnet; conditions: rated 4-5 weeks after treatment
Outline: (§2)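 Herbicidal effect scored visually, 0-9, at 4 to 5 weeks against a control; compound applied preemergence by aqueous acetone spray to seeded soil at about 0.0156 to 0.500 kg/ha.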

[2] = test system: TRZAWR (Wheat, Winter, cv Riband); assay: Postemergence herbicidal evaluation; format: in vivo, Triticum aestivum; conditions: postemergence
Outline: as §1

[3] = test system: GLXMAW (Soybean, Williams); assay: Preemergence herbicidal evaluation; format: in vivo, Glycine max, (L.) Merr. cv Williams; conditions: rated 4-5 weeks after treatment
Outline: as §2

MOOVA (Monochoria) = assay: Preemergence weed control under flooded paddy conditions; format: in vivo, Monochoria vaginalis; conditions: rated 3-4 weeks after treatment
Outline: (§3)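 First, seeds or propagules go into the top 0.5 cm of silt loam; next, water is held 1.5 to 3 cm over the soil; then compound (50/50 acetone/water) is pipetted into it at about 0.0313 to 0.500 kg/ha; finally plants are rated visually 0-9 after three to four weeks.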

AMBEL (Ragweed, Common) [4] = assay: Preemergence herbicidal evaluation; format: in vivo, Ambrosia artemisifolia; conditions: rated 4-5 weeks after treatment
Outline: as §2

[5] = test system: SAGPY (Arrowhead (Pygmaea)); assay: Preemergence weed control under flooded paddy conditions; format: in vivo, Sagittaria pygmaea; conditions: rated 3-4 weeks after treatment
Outline: as §3

[6] = test system: GLXMAW (Soybean, Williams); assay: Postemergence herbicidal evaluation; format: in vivo, Glycine max, (L.) Merr. cv Williams; conditions: postemergence
Outline: as §1

[7] = test system: CHEAL (Lambsquarters, Common); assay: Preemergence herbicidal evaluation; format: in vivo, Chenopodium album; conditions: rated 4-5 weeks after treatment
Outline: as §2

CASOB (Sicklepod) [8] = assay: Preemergence herbicidal evaluation; format: in vivo, Cassia obtusifolia; conditions: rated 4-5 weeks after treatment
Outline: as §2

ABUTH (Velvetleaf) = assay: Preemergence herbicidal evaluation; format: in vivo, Abutilon theophrasti; conditions: rated 4-5 weeks after treatment
Outline: as §2

[9] = test system: IPOHE (Morningglory, Ivyleaf); assay: Preemergence herbicidal evaluation; format: in vivo, Ipomoea hederacea; conditions: rated 4-5 weeks after treatment
Outline: as §2

[10] = test system: IPOHE (Morningglory, Ivyleaf); assay: Postemergence herbicidal evaluation; format: in vivo, Ipomoea hederacea; conditions: postemergence
Outline: as §1

AMBEL (Ragweed, Common) [11] = assay: Postemergence herbicidal evaluation; format: in vivo, Ambrosia artemisifolia; conditions: postemergence
Outline: as §1

CASOB (Sicklepod) [12] = assay: Postemergence herbicidal evaluation; format: in vivo, Cassia obtusifolia; conditions: postemergence
Outline: as §1

CCOC(=O)CN1C(=O)C(C(=O)OC(C)(C)C)SC1=Nc1cc(-n2c(=O)cc(C(F)(F)F)n(C)c2=O)c(F)cc1Cl (centres unmarked) [Compound 167, 5-Carboxy-2-{{2-chloro-5-[3,6-dihydro-3-methyl-2,6-dioxo-4-(trifluoromethyl)-1(2H)-pyrimidinyl]-4-fluorophenyl}imino}-4-oxo-3-thiazolidineacetic acid, 5-tert-butyl ethyl ester]
Herbicidal rating CHEAL ([1]; rate 0.0156 kg/ha): 4.0 | Herbicidal rating CHEAL ([1]; rate 0.0313 kg/ha): 7.0 | Herbicidal rating CHEAL ([1]; rate 0.0625 kg/ha): 9.0 | Herbicidal rating CHEAL ([1]; rate 0.1250 kg/ha): 9.0 | Herbicidal rating ECHCG (ECHCG (Barnyardgrass); rate 0.0156 kg/ha): 3.0 | Herbicidal rating ECHCG (ECHCG (Barnyardgrass); rate 0.0313 kg/ha): 3.0 | Herbicidal rating ECHCG (ECHCG (Barnyardgrass); rate 0.0625 kg/ha): 3.0 | Herbicidal rating ECHCG (ECHCG (Barnyardgrass); rate 0.1250 kg/ha): 3.0 | Preemergence herbicidal rating ORYSAT (ORYSAT (Rice, Tebonnet); 0.0156 kg/ha): 0.0 | Preemergence herbicidal rating ORYSAT (ORYSAT (Rice, Tebonnet); 0.0313 kg/ha): 0.0 | Preemergence herbicidal rating ORYSAT (ORYSAT (Rice, Tebonnet); 0.0625 kg/ha): 1.0 | Preemergence herbicidal rating ORYSAT (ORYSAT (Rice, Tebonnet); 0.1250 kg/ha): 4.0 | Preemergence herbicidal rating ORYSAT (ORYSAT (Rice, Tebonnet); 0.2500 kg/ha): 5.0 | Preemergence herbicidal rating ORYSAT (ORYSAT (Rice, Tebonnet); 0.5000 kg/ha): 6.0 | Herbicidal rating TRZAWR ([2]; rate 0.0156 kg/ha): 4.0 | Herbicidal rating TRZAWR ([2]; rate 0.0313 kg/ha): 4.0 | Herbicidal rating TRZAWR ([2]; rate 0.0625 kg/ha): 4.0 | Herbicidal rating TRZAWR ([2]; rate 0.1250 kg/ha): 4.5 | Preemergence herbicidal rating GLXMAW ([3]; 0.0156 kg/ha): 1.0 | Preemergence herbicidal rating GLXMAW ([3]; 0.0313 kg/ha): 0.0 | Preemergence herbicidal rating GLXMAW ([3]; 0.0625 kg/ha): 0.0 | Preemergence herbicidal rating GLXMAW ([3]; 0.1250 kg/ha): 4.0 | Preemergence herbicidal rating GLXMAW ([3]; 0.2500 kg/ha): 4.0 | Preemergence herbicidal rating GLXMAW ([3]; 0.5000 kg/ha): 7.0 | herbicidal effect rating, MOOVA (MOOVA (Monochoria); 0.0313 kg/ha): 9.0 | herbicidal effect rating, MOOVA (MOOVA (Monochoria); 0.0625 kg/ha): 9.0 | herbicidal effect rating, MOOVA (MOOVA (Monochoria); 0.1250 kg/ha): 9.0 | herbicidal effect rating, MOOVA (MOOVA (Monochoria); 0.2500 kg/ha): 9.0 | Preemergence herbicidal rating AMBEL (AMBEL (Ragweed, Common) [4]; 0.0156 kg/ha): 1.0 | Preemergence herbicidal rating AMBEL (AMBEL (Ragweed, Common) [4]; 0.0313 kg/ha): 0.0 | Preemergence herbicidal rating AMBEL (AMBEL (Ragweed, Common) [4]; 0.0625 kg/ha): 7.0 | Preemergence herbicidal rating AMBEL (AMBEL (Ragweed, Common) [4]; 0.1250 kg/ha): 6.0 | Preemergence herbicidal rating AMBEL (AMBEL (Ragweed, Common) [4]; 0.2500 kg/ha): 7.0 | Preemergence herbicidal rating AMBEL (AMBEL (Ragweed, Common) [4]; 0.5000 kg/ha): 8.0 | herbicidal effect rating, SAGPY ([5]; 0.0313 kg/ha): 4.0 | herbicidal effect rating, SAGPY ([5]; 0.0625 kg/ha): 5.0 | herbicidal effect rating, SAGPY ([5]; 0.1250 kg/ha): 6.0 | herbicidal effect rating, SAGPY ([5]; 0.2500 kg/ha): 7.0 | Herbicidal rating GLXMAW ([6]; rate 0.0156 kg/ha): 5.0 | Herbicidal rating GLXMAW ([6]; rate 0.0313 kg/ha): 6.0 | Herbicidal rating GLXMAW ([6]; rate 0.0625 kg/ha): 6.5 | Herbicidal rating GLXMAW ([6]; rate 0.1250 kg/ha): 6.5 | Preemergence herbicidal rating CHEAL ([7]; 0.0156 kg/ha): 7.0 | Preemergence herbicidal rating CHEAL ([7]; 0.0313 kg/ha): 7.0 | Preemergence herbicidal rating CHEAL ([7]; 0.0625 kg/ha): 9.0 | Preemergence herbicidal rating CHEAL ([7]; 0.1250 kg/ha): 9.0 | Preemergence herbicidal rating CHEAL ([7]; 0.2500 kg/ha): 9.0 | Preemergence herbicidal rating CHEAL ([7]; 0.5000 kg/ha): 9.0 | Preemergence herbicidal rating CASOB (CASOB (Sicklepod) [8]; 0.0156 kg/ha): 0.0 | Preemergence herbicidal rating CASOB (CASOB (Sicklepod) [8]; 0.0313 kg/ha): 0.0 | Preemergence herbicidal rating CASOB (CASOB (Sicklepod) [8]; 0.0625 kg/ha): 1.0 | Preemergence herbicidal rating CASOB (CASOB (Sicklepod) [8]; 0.1250 kg/ha): 1.0 | Preemergence herbicidal rating CASOB (CASOB (Sicklepod) [8]; 0.2500 kg/ha): 4.0 | Preemergence herbicidal rating CASOB (CASOB (Sicklepod) [8]; 0.5000 kg/ha): 9.0 | Preemergence herbicidal rating ABUTH (ABUTH (Velvetleaf); 0.0313 kg/ha): 0.0 | Preemergence herbicidal rating ABUTH (ABUTH (Velvetleaf); 0.0625 kg/ha): 9.0 | Preemergence herbicidal rating ABUTH (ABUTH (Velvetleaf); 0.1250 kg/ha): 9.0 | Preemergence herbicidal rating ABUTH (ABUTH (Velvetleaf); 0.2500 kg/ha): 9.0 | Preemergence herbicidal rating ABUTH (ABUTH (Velvetleaf); 0.5000 kg/ha): 9.0 | Preemergence herbicidal rating IPOHE ([9]; 0.0156 kg/ha): 0.0 | Preemergence herbicidal rating IPOHE ([9]; 0.0313 kg/ha): 0.0 | Preemergence herbicidal rating IPOHE ([9]; 0.0625 kg/ha): 2.0 | Preemergence herbicidal rating IPOHE ([9]; 0.1250 kg/ha): 3.0 | Preemergence herbicidal rating IPOHE ([9]; 0.2500 kg/ha): 9.0 | Preemergence herbicidal rating IPOHE ([9]; 0.5000 kg/ha): 9.0 | Herbicidal rating IPOHE ([10]; rate 0.0156 kg/ha): 9.0 | Herbicidal rating IPOHE ([10]; rate 0.0313 kg/ha): 9.0 | Herbicidal rating IPOHE ([10]; rate 0.0625 kg/ha): 9.0 | Herbicidal rating IPOHE ([10]; rate 0.1250 kg/ha): 9.0 | Herbicidal rating AMBEL (AMBEL (Ragweed, Common) [11]; rate 0.0156 kg/ha): 4.0 | Herbicidal rating AMBEL (AMBEL (Ragweed, Common) [11]; rate 0.0313 kg/ha): 7.0 | Herbicidal rating AMBEL (AMBEL (Ragweed, Common) [11]; rate 0.0625 kg/ha): 9.0 | Herbicidal rating AMBEL (AMBEL (Ragweed, Common) [11]; rate 0.1250 kg/ha): 7.0 | Herbicidal rating CASOB (CASOB (Sicklepod) [12]; rate 0.0156 kg/ha): 1.0 | Herbicidal rating CASOB (CASOB (Sicklepod) [12]; rate 0.0313 kg/ha): 2.0 | Herbicidal rating CASOB (CASOB (Sicklepod) [12]; rate 0.0625 kg/ha): 1.0 | Herbicidal rating CASOB (CASOB (Sicklepod) [12]; rate 0.1250 kg/ha): 4.0
